Data as given in US8314058B2, “Uptake of macromolecules” (Axcess Limited, priority 2003, dated 2012).

Tested on: juvenile pigs
Test: In vivo efficacy of tablets containing chenodeoxycholate/propyl gallate/calcitonin mixture in juvenile pigs (blood calcium)
Settings: 400 iu s.c., six hour period
Description: Blood calcium levels are measured at intervals over a six hour period and mean change in AUC of plasma calculated is calculated in h·mmol/l.

In the case of salmon calcitonin, the “AUC (mean change in AUC of plasma calcium)” value is reported as -1.79 mmol·h/L.
